As a reminder, the inhibition in vivo is how much of the control response was suppressed. One may read the ED50 as the dose at which the effect has come halfway, by size or by number of responders. One may read the LD50 as the dose expected to kill half of the subjects tested.

34 molecules from patent US4146631A, “Benzamide derivatives” (May & Baker Limited, priority 1976, dated 1979) can be followed below.

For series [1], the system named is passive cutaneous anaphylactic (PCA) reaction. In words: Passive cutaneous anaphylactic (PCA) reaction, reagin-allergen combination, in rats. Format: in vivo. To be noted: Rattus norvegicus; for ED100: intravenous, just before injection of allergen, read-out: ED100 (intravenous dose which produces 100% inhibition of the PCA reaction); for inhibition in vivo at 100 mg/kg: oral dose of 100 mg/kg; for inhibition in vivo at 100 mg/kg / ED50: thirty minutes before intravenous allergen; for ED50: oral, read-out: ED50 (oral dose which produces 50% inhibition of the PCA reaction). An excerpt:
In pharmacological tests the benzamide derivatives of general formula I suppress the passive cutaneous anaphylactic (PCA) reaction resulting from combination of tissue-fixed reaginic antibodies with the appropriate antigenic material (termed reagin-allergen combination) and carried out in an essentially similar manner to that described by Ogilvie [Nature (Lond.), (1964), 204, 91-92; Immunology, (1967), 12, 112-131]. In the method used to test these compounds sera were obtained from rats which had been infected with larvae of the nematode parasite Nippostrongylus brasiliensis; as a result of the parasitic infestation reaginic antibodies are elaborated in the host mammal and are found in sera removed from such animals. Other, non-infected, rats received intradermal injections of appropriate dilutions of such sera and were then given the allergenic material along with Evans' blue dye intravenously forty-eight hours later.
The allergenic material consisted of supernatant fluid after centrifugation of homogenates of adult Nippostrongylus brasiliensis worms which had been macerated in Tyrode's solution. The sites of PCA reactions were visualised by the effusion of Evan's blue dye from the circulation into those areas as a result of increased capillary permeability caused by the release of biologically-active substances from cells where reagin-allergen combination had occurred. The new compounds when given intravenously to the rats just before injection of allergen, or administered orally thirty minutes before intravenous injection of allergen, were able to prevent the development of the PCA reaction, as shown below in Table I, Table II and Table III.

Series [2] is described as follows: Acute intravenous toxicity in mice. To be noted: mouse, in vivo, triethanolamine salt (T), 2% w/v test solution. The text has this:
Mice were each treated intravenously with an aqueous solution of the triethanolamine salt or sodium salt of one of the compounds of formula I, and they were observed until there had been at least 3 consecutive days without any deaths. The LD50 figures obtained (doses lethal to 50% of mice tested) are shown below in Table V, expressed in mg/kg animal body weight. In Table V, "Na" means that the sodium salt was used and "T" means that the triethanolamine salt was used.
The aqueous solutions were prepared as follows:
A mixture of the test compound and water was treated gradually with triethanolamine until complete solution occurred. The solution was then diluted with water to a concentration of test compound of either 1% w/v or 2% w/v.
The test compound was dissolved in aqueous sodium hydroxide (1N) and the solution was brought to pH 8 by treatment with hydrochloric acid. The solution was then diluted with water to a concentration of test compound of 2% w/v.
Various volumes of these solutions were then administered to the mice.

As for `CN(C)S(=O)(=O)c1ccc(O)c(C(=O)Nc2nnn[nH]2)c1` [AB, 2-hydroxy-5-(N,N-dimethylsulphamoyl)-N-(tetrazol-5-yl)benzamide], the ED100 in series [1] came to 2 mg/kg.

Regarding `CC(C)N(C)S(=O)(=O)c1ccc(O)c(C(=O)Nc2nnn[nH]2)c1` [AC, 2-hydroxy-5-(N-methyl-N-isopropylsulphamoyl)-N-(tetrazol-5-yl)benzamide], in series [1], the ED100 is 5 mg/kg and the inhibition in vivo at 100 mg/kg was 20%.

In the case of `O=C(Nc1nnn[nH]1)c1cc(O)ccc1O` [AF, 2,5-dihydroxy-N-(tetrazol-5-yl)benzamide], the ED100 in series [1] was found to be 1 mg/kg.

Consider `O=C(Nc1nnn[nH]1)c1ccc(O)cc1O` [AJ, 2,4-dihydroxy-N-(tetrazol-5-yl)benzamide], for which, in series [1], the ED100 was determined as 10 mg/kg and the inhibition in vivo at 100 mg/kg came out at 38%.

Take `Cc1ccc(C(=O)Nc2nnn[nH]2)c(O)c1` [AK, 2-hydroxy-4-methyl-N-(tetrazol-5-yl)benzamide]: in series [1], the ED100 came out at 10 mg/kg and the inhibition in vivo at 100 mg/kg came to 32%.

Consider `O=C(Nc1nnn[nH]1)c1cccc(Cl)c1O` [AM, 3-chloro-2-hydroxy-N-(tetrazol-5-yl)benzamide], for which, in series [1], the ED100 was 5 mg/kg, the inhibition in vivo at 100 mg/kg was 82% and the ED50 came out at 85 mg/kg.

For `COc1ccc(C(=O)Nc2nnn[nH]2)c(O)c1` [AT, 2-hydroxy-4-methoxy-N-(tetrazol-5-yl)benzamide], in series [1], the ED100 was 5 mg/kg and the inhibition in vivo at 100 mg/kg is 8%.

Turning to `O=C(Nc1nnn[nH]1)c1cc(Br)cc(Br)c1O` [AY, 3,5-dibromo-2-hydroxy-N-(tetrazol-5-yl)benzamide], in series [1], the ED100 was 5 mg/kg and the inhibition in vivo at 100 mg/kg stood at 65%.

`CC(=O)Nc1ccc(O)c(C(=O)Nc2nnn[nH]2)c1` [AZ, 5-acetylamino-2-hydroxy-N-(tetrazol-5-yl)benzamide]: the ED100 in series [1] worked out at 10 mg/kg.

As to `O=C(Nc1nnn[nH]1)c1ccc(F)cc1O` [BD, 4-fluoro-2-hydroxy-N-(tetrazol-5-yl)benzamide], in series [1], the ED100 was found to be 10 mg/kg and the inhibition in vivo at 100 mg/kg was 75%.

With `CSc1ccc(O)c(C(=O)Nc2nnn[nH]2)c1` [BF, 2-hydroxy-5-methylthio-N-(tetrazol-5-yl)benzamide], the ED100 in series [1] is 0.5 mg/kg.

For the molecule `CSc1cccc(C(=O)Nc2nnn[nH]2)c1O` [BI, 2-hydroxy-3-methylthio-N-(tetrazol-5-yl)benzamide], in series [1], the ED100 is 20 mg/kg. Also, in series [2], the LD50 came to 580 mg/kg.

`CS(=O)(=O)c1cccc(C(=O)Nc2nnn[nH]2)c1O` [BJ, 2-hydroxy-3-methylsulphonyl-N-(tetrazol-5-yl)benzamide]: in series [1], the ED100 is 20 mg/kg and the inhibition in vivo at 100 mg/kg is 64%.

For the molecule `CS(=O)(=O)c1cc(C(=O)Nc2nnn[nH]2)c(O)c(S(C)(=O)=O)c1` [BK, 2-hydroxy-3,5-bis(methylsulphonyl)-N-(tetrazol-5-yl)benzamide], in series [1], the ED100 is 10 mg/kg and the inhibition in vivo at 100 mg/kg was 29%.

Consider `O=Cc1ccc(O)c(C(=O)Nc2nnn[nH]2)c1` [BL, 5-formyl-2-hydroxy-N-(tetrazol-5-yl)benzamide], for which, in series [1], the ED100 was found to be 0.5 mg/kg and the inhibition in vivo at 100 mg/kg is 25%.

`O=C(Nc1nnn[nH]1)c1cc(Br)ccc1O` [BM, 5-bromo-2-hydroxy-N-(tetrazol-5-yl)benzamide]: in series [1], the ED100 came out at 5 mg/kg, the inhibition in vivo at 100 mg/kg worked out at 46% and the ED50 was determined as 65 mg/kg.

Regarding `CSc1ccc(C(=O)Nc2nnn[nH]2)c(O)c1` [BN, 2-hydroxy-4-methylthio-N-(tetrazol-5-yl)benzamide], in series [1], the ED100 worked out at 10 mg/kg and the inhibition in vivo at 100 mg/kg came out at 8%.

For the molecule `CS(=O)(=O)c1ccc(O)c(C(=O)Nc2nnn[nH]2)c1` [BO, 2-hydroxy-5-methylsulphonyl-N-(tetrazol-5-yl)benzamide], in series [1], the ED100 is 5 mg/kg and the inhibition in vivo at 100 mg/kg is 63%.

`O=C(Nc1ccc(O)c(C(=O)Nc2nnn[nH]2)c1)OCc1ccccc1` [BQ, 5-benzyloxycarbonylamino-2-hydroxy-N-(tetrazol-5-yl)benzamide]: in series [1], the ED100 turned out to be 5 mg/kg.

Regarding `O=C(Nc1ccc(C(=O)Nc2nnn[nH]2)c(O)c1)OCc1ccccc1` [BR, 4-benzyloxycarbonylamino-2-hydroxy-N-(tetrazol-5-yl)benzamide], the ED100 in series [1] came to 0.5 mg/kg.

For `CC(=O)c1cc(Br)cc(C(=O)Nc2nnn[nH]2)c1O` [CB, 3-acetyl-5-bromo-2-hydroxy-N-(tetrazol-5-yl)benzamide], in series [1], the ED100 was 2 mg/kg, the inhibition in vivo at 100 mg/kg came out at 66% and the ED50 worked out at 64 mg/kg.

For the molecule `CC(=O)c1cc(F)cc(C(=O)Nc2nnn[nH]2)c1O` [CC, 3-acetyl-5-fluoro-2-hydroxy-N-(tetrazol-5-yl)benzamide], in series [1], the ED100 turned out to be 0.2 mg/kg, the inhibition in vivo at 100 mg/kg came to 62% and the ED50 worked out at 1.9 mg/kg.

As for `O=Cc1cccc(C(=O)Nc2nnn[nH]2)c1O` [CH, 3-formyl-2-hydroxy-N-(tetrazol-5-yl)benzamide], in series [1], the ED100 turned out to be 0.5 mg/kg, the inhibition in vivo at 100 mg/kg came to 75% and the ED50 was found to be 5.3 mg/kg.

For `Cc1cc(C=O)c(O)c(C(=O)Nc2nnn[nH]2)c1` [CI, 3-formyl-2-hydroxy-5-methyl-N-(tetrazol-5-yl)benzamide], in series [1], the ED100 was determined as 2 mg/kg, the inhibition in vivo at 100 mg/kg is 70% and the ED50 turned out to be 5.4 mg/kg.

On to `N#Cc1ccc(O)c(C(=O)Nc2nnn[nH]2)c1` [CK, 5-cyano-2-hydroxy-N-(tetrazol-5-yl)benzamide], for which, in series [1], the ED100 came out at 0.2 mg/kg, the inhibition in vivo at 100 mg/kg was determined as 89% and the 50% effective dose (ED50) is 50 mg/kg.

For `Cc1cc(C(=O)Nc2nnn[nH]2)c(O)c(-c2nnn[nH]2)c1` [CM, 2-hydroxy-5-methyl-3,N-bis(tetrazol-5-yl)benzamide], in series [1], the ED100 came to 0.05 mg/kg and the inhibition in vivo at 100 mg/kg is 64%.

Regarding `O=C(O)c1cccc(C(=O)Nc2nn[nH]n2)c1O` [CN, 3-N-(tetrazol-5-yl)carbamoylsalicylic acid], in series [1], the ED100 turned out to be 1 mg/kg, the inhibition in vivo at 100 mg/kg worked out at 43% and the ED50 is 20 mg/kg.

Consider `CC(C)(C)NC(=O)c1cccc(C(=O)Nc2nnn[nH]2)c1O` [CO, 3-tert-butylcarbamoyl-2-hydroxy-N-(tetrazol-5-yl)benzamide], for which, in series [1], the ED100 amounted to 5 mg/kg and the inhibition in vivo at 100 mg/kg stood at 26%.

Turning to `CN(C)c1cccc(C(=O)Nc2nnn[nH]2)c1O` [CP, 2-hydroxy-3-dimethylamino-N-(tetrazol-5-yl)benzamide], in series [1], the ED100 turned out to be 2 mg/kg, the inhibition in vivo at 100 mg/kg was 68% and the ED50 was determined as 26 mg/kg.

As for `O=C(Nc1nnn[nH]1)c1ccc([N+](=O)[O-])cc1O` [Compound AA, 2-hydroxy-4-nitro-N-(tetrazol-5-yl)benzamide], in series [1], the ED100 was 10 mg/kg and the inhibition in vivo at 100 mg/kg amounted to 18%.

As for `Nc1ccc(O)c(C(=O)Nc2nnn[nH]2)c1` [Compound BS, 5-amino-2-hydroxy-N-(tetrazol-5-yl)benzamide], in series [1], the ED100 worked out at 5 mg/kg and the inhibition in vivo at 100 mg/kg stood at 35%.

For `CC(=O)c1cc(S(N)(=O)=O)cc(C(=O)Nc2nnn[nH]2)c1O` [Compound BU, 3-acetyl-2-hydroxy-5-sulphamoyl-N-(tetrazol-5-yl)benzamide], in series [1], the ED100 came to 0.5 mg/kg and the inhibition in vivo at 100 mg/kg is 86%.

Consider `O=C(Nc1nnn[nH]1)c1cc(C(F)(F)F)ccc1O` [Compound BV, 5-trifluoromethyl-2-hydroxy-N-(tetrazol-5-yl)benzamide], for which, in series [1], the ED100 is 2 mg/kg, the inhibition in vivo at 100 mg/kg was found to be 90% and the 50% effective dose (ED50) turned out to be 37 mg/kg.

With `Cc1cc(C#N)c(O)c(C(=O)Nc2nnn[nH]2)c1` [Compound CL, 3-cyano-2-hydroxy-5-methyl-N-(tetrazol-5-yl)benzamide], in series [1], the ED100 was determined as 2 mg/kg and the inhibition in vivo at 100 mg/kg was 26%.
